Source: US20050119337A1, “Methods of application of Schisandrin B in the preparation of anticancer medications” (priority 2003, published 2005)

What was measured:
K562/vcr = assay: Reversal of drug resistance, MTT assay, 48 h; assay type: cell-based
Protocol: To illustrate a method for reversal of drug resistance by application of Schisandrin B, cell lines K562/adr, K562/vcr (X. […] H. […] Cells were cultured in RPMI-1640 medium containing 10% fetal calf serum. […] The logarithmic growing cells were seeded into a 96 well plate (20,000 cells/well). Specific anticancer drugs (set forth in Table 1) and Schisandrin B in combination were added into the wells containing the select cell lines. […] Cell viability was assessed by MTT assays as described in X.

[1] = system: human leukemia MDR cell line K562/adr; assay: Reversal of drug resistance of K562/adr, MTT assay, 72 h; assay type: cell-based; conditions: K562/adr
Protocol: (§1) In this embodiment, the IC50 of anticancer drugs in the presence or absence of Schisandrin B toward MDR cells was determined.
(§2) MTT assays were carried out in triplicate against human leukemia MDR cell line K562/adr and human epidermoid carcinoma MDR cell line KBV200. MTT assays as described previously (X. Hu, et al., Chemotherapy 41:296-305 (1995)) were used to determine the cytotoxicity of each anticancer drug in the presence or absence of Schisandrin B or verapmil.
Cells were treated with specific anticancer drugs as set forth therein. “Ctrl” represents control cells treated with anticancer drugs in the absence of Schisandrin B or verapamil. “SchB” represents cells treated with anticancer drugs in the presence of Schisandrin B (10 μg/ml).

[2] = system: human epidermoid carcinoma MDR cell line KBV200; assay: Reversal of drug resistance of KBV200, MTT assay, 72 h; assay type: cell-based
Protocol: as §1, §2
Cells were treated with specific anticancer drugs as set forth therein. […] “SchB” represents cells treated with anticancer drugs in the presence of Schisandrin B (10 μg/ml).

KBV200 [3] = assay: Apoptosis induced by doxorubicin, Hoechst 33342/propidium iodide staining; assay type: cell-based, human; conditions: KBV200, A5 + S10: doxorubicin 5 μg/ml and Schisandrin B 10 μg/ml, 24 hours
Excerpt: (§3) Cells were collected and stained with fluorescent dyes Hoechst 33342 and propidium iodide. Hoechst 33342 stains the nuclei of cells with the color blue, and propidium iodide exclusively stains dead cells with the color of red. Accordingly, while Hoechst 33342 only stained the living cells blue, the dead cells were stained by both dyes with the colors of yellow, orange or red. The percentage of dead cells was counted under fluorescent microscope.

KBV200 cells = assay: DNA fragmentation, agarose electrophoresis; assay type: cell-based, human; conditions: FIG. 13
Excerpt: The DNA of above cells was also extracted and subjected to agarose electrophoresis.

KBV200 [4] = assay: Cell cycle distribution and hypodiploid cells, propidium iodide flow cytometry; assay type: cell-based, human
Protocol: The test cells were also analyzed by flow cytometry after being subjected to propidium iodide staining.

KBV200-implanted tumor = assay: In vivo reversal of drug resistance, KBV200-implanted tumor; parameters: species or system Balb/c nude mice
Protocol: Thirty nine Balb/c nu/nu female mice were inoculated subcutaneously with KBV200 cells (5×10^6 KBV200 cells/each mouse) on day 0. […] Mean body weights were recorded daily. All mice were observed once per day (or more) for mortality and signs of ill health (i.e., weight loss, change in appetite, or behavioral changes). Therapeutic comparisons were made between control and treatment groups by determining the tumor size. Tumor size was monitored approximately every other day by caliper measurements and calculated according to the formula [Tumor weight=(length×width^2)÷2]. The median survival times (MST) and the percent increase in life span (% ILS) were calculated as: % ILS=[(MSTtreatment/MSTcontrol)−1]×100.
“MST” represents median survival time. The survival rate (T/C %) was calculated by following equation: T/C(%)=[Average survival period in the test group/average survival period in the control group]×100. *P<0.05 compared to saline, vehicle, or Schisandrin B alone.

KB = assay: Apoptosis induced by doxorubicin, Hoechst 33342/propidium iodide staining; assay type: cell-based
Excerpt: as §3

[5] = KBV200, A1: doxorubicin 1 μg/ml
[6] = KBV200, A5: doxorubicin 5 μg/ml
[7] = KBV200, doxorubicin 1 μg/ml and Schisandrin B 10 μg/ml
[8] = KBV200, doxorubicin 5 μg/ml and Schisandrin B 10 μg/ml

## COc1cccc2c1C(=O)c1c(O)c3c(c(O)c1C2=O)C[C@@](O)(C(=O)CO)C[C@@H]3O[C@H]1C[C@H](N)[C@H](O)[C@H](C)O1 [Doxorubicin, doxorubicin]
K562/vcr; Homo sapiens, anticancer drug toward K562/vcr in the absence of Schisandrin B, 48 h, read-out: IC50 Control
  IC50: 4.89 ± 0.21 µg/mL
K562/vcr; IC50 in the absence of Schisandrin B divided by IC50 in the presence of Schisandrin B (10 μg/ml)
  RF (Reversal Folds): 25.7
K562/vcr; anticancer drug toward K562/vcr in the presence of Schisandrin B (10 μg/ml), 48 h
  IC50 Schisandrin B: 0.19 ± 0.01 µg/mL
[1]; Homo sapiens, anticancer drug alone, 72 h, read-out: IC50 Control
  IC50: 1.42 ± 0.246 µg/mL
[1]; IC50 in the absence divided by IC50 in the presence of Schisandrin B (10 μg/ml)
  RF (Schisandrin B): 20.57
[1]; IC50 in the absence divided by IC50 in the presence of verapamil (6 μg/ml)
  RF (verapamil): 10.76
[1]; anticancer drug in the presence of Schisandrin B (10 μg/ml)
  IC50 Schisandrin B: 0.0691 ± 0.0137 µg/mL
[1]; anticancer drug in the presence of verapamil (6 μg/ml)
  IC50 verapamil: 0.1324 ± 0.0086 µg/mL
[2]; Homo sapiens, anticancer drug alone, KBV200, 72 h, read-out: IC50 Control
  IC50: 0.327 ± 0.213 µg/mL
[2]; IC50 in the absence / IC50 in the presence of verapamil (6 μg/ml), KBV200
  RF (verapamil): 10.11
[2]; anticancer drug in the presence of Schisandrin B (10 μg/ml), KBV200
  IC50 Schisandrin B: 0.0691 ± 0.0137 µg/mL
[2]; anticancer drug in the presence of verapamil (6 μg/ml), KBV200
  IC50 verapamil: 0.0324 ± 0.0086 µg/mL
KBV200 [3]
  % apoptosis: >90%
KBV200 cells; KBV200, doxorubicin combined with Schisandrin B (10 μg/ml)
  DNA fragmentation: demonstrated DNA fragmentation
KBV200 cells; KBV200, doxorubicin in the absence of Schisandrin B
  DNA fragmentation: did not show the similar DNA fragmentation
KBV200 [4]; [5]
  Cell cycle distribution G0/G1: 44.76%
  Cell cycle distribution G2/M: 10.14%
  Cell cycle distribution S: 45.09%
  hypodiploid %: 1.21%
KBV200 [4]; [6]
  Cell cycle distribution G0/G1: 48.03%
  Cell cycle distribution G2/M: 9.60%
  Cell cycle distribution S: 42.37%
  hypodiploid %: 7.51%
KBV200 [4]; [7]
  Cell cycle distribution G0/G1: 54.04%
  Cell cycle distribution G2/M: 5.66%
  Cell cycle distribution S: 40.30%
  hypodiploid %: 24.10%
KBV200 [4]; [8]
  Cell cycle distribution G0/G1: 58.94%
  Cell cycle distribution G2/M: 1.70%
  Cell cycle distribution S: 39.36%
  hypodiploid %: 70.31%
KBV200-implanted tumor; Balb/c nu/nu mice, KBV200 s.c., doxorubicin 5 mg/kg via tail vein, Schisandrin B via gastric intubation, days 11, 14, 18, 21, 25, FIG. 15
  tumor sizes versus control groups: not significantly different
KBV200-implanted tumor; Balb/c nude mice bearing KBV200-implanted tumor, doxorubicin 5 mg/kg i.v., Schisandrin B 50 mg/kg gastric intubation
  MST: not significantly prolonged
KBV200-implanted tumor; survival period in the test group / control group x 100, Balb/c nude mice bearing KBV200-implanted tumor
  T/C: 111.1%
KB; A1: doxorubicin 1 μg/ml
  % apoptosis: >90%
KB; A5: doxorubicin 5 μg/ml
  % apoptosis: >90%
